Source: patent publication US8791143B2, “Anthranilic diamide derivatives having cyclic side-chains” (priority 2010, dated 2014)
Where two headings read alike, the source gives them in different places.

Key:
[1] = log P by HPLC on reversed-phase columns (EEC Directive 79/831 Annex V.A8); assay type: physicochemical
[2] = tested on: caterpillars of the armyworm (Spodoptera frugiperda); assay: Spodoptera frugiperda test (SPODFR spray treatment); assay type: in vivo; details: Spodoptera frugiperda, 168 h, read-out: activity in % (caterpillars killed)
[3] = tested on: larvae of the mustard beetle (Phaedon cochleariae); assay: Phaedon test (PHAECO spray treatment); details: Phaedon cochleariae, 168 h, read-out: activity in % (beetle larvae killed)
[4] = reversed-phase C18 HPLC column, pH 2.7, HPLC reversed-phase C18, acidic range pH 2.7 (HCOOH), only or first value of the cell, read-out: log P
[5] = application rate 100 g/ha, after 7 days

SMILES | chromatographic logP ([1]; pH 2.7, log P) | chromatographic logP [1, 4] | other results
Cc1cc(Cl)cc(C(=O)NC(C)c2ccc(Cl)cc2)c1NC(=O)c1cc(Cn2nnc(C(F)(F)F)n2)nn1-c1ncccc1Cl (stereo not shown) [Example 111] | 4.3 |  | pest or weed control at 100 g/ha [2]: 100%; pest or weed control at 100 g/ha [3]: 100%
Cc1cc(Cl)cc(C(=O)NCC2(C)CCCO2)c1NC(=O)c1cc(Cn2nnc(C(F)(F)F)n2)nn1-c1ncccc1Cl (stereo not shown) [Example 61] | 3.48 |  | pest or weed control at 100 g/ha [2]: 100%; pest or weed control at 100 g/ha [3]: 100%
Cc1ccc(CNC(=O)c2cc(Cl)cc(C)c2NC(=O)c2cc(Cn3nnc(C(F)(F)F)n3)nn2-c2ncccc2Cl)nc1C [Example 227] | 2.1 |  | pest or weed control at 100 g/ha [2]: 100%
O=C(NCc1ccccc1Cl)c1cc2ccccc2c(Cl)c1NC(=O)c1cc(Cn2nnc(C(F)(F)F)n2)nn1-c1ncccc1Cl [Example 218] |  | 4.1 | 
O=C(NCc1cccc(OC(F)(F)F)c1)c1cc2ccccc2c(Cl)c1NC(=O)c1cc(Cn2nnc(C(F)(F)F)n2)nn1-c1ncccc1Cl [Example 222] |  | 4.38 | pest or weed control at 100 g/ha [2, 5]: 100%
Cc1cc(Cl)cc(C(=O)NCc2ccccc2)c1NC(=O)c1cc(Cn2nnnc2CCC(F)(F)F)nn1-c1ncccc1Cl [Example 131] | 3.2 |  | 
Cc1ccc(Cl)c(C(=O)NCc2ccc(OC(F)(F)F)cc2)c1NC(=O)c1cc(Cn2nnc(C(F)(F)F)n2)nn1-c1ncccc1Cl [Example 201] |  | 3.93 | 
Cc1ccc(CNC(=O)c2cc(C#N)cc(C)c2NC(=O)c2cc(Cn3nnc(C(F)(F)F)n3)nn2-c2ccccc2Cl)cc1 [Example 78] |  | 3.74 | pest or weed control at 100 g/ha [2, 5]: 100%
CCCc1cccc(CNC(=O)c2cc(Cl)cc(C)c2NC(=O)c2cc(Cn3nnc(C(F)(F)F)n3)nn2-c2ncccc2Cl)n1 [Example 229] |  | 2.94 | pest or weed control at 100 g/ha [3]: 100%
O=C(NC1COC1)c1cc(Cl)cc(Cl)c1NC(=O)c1cc(Cn2nnc(C(F)F)n2)nn1-c1ncccc1Cl [Example 19] | 2.37 |  | pest or weed control at 100 g/ha [2]: 100%
O=C(NCc1cccc(Cl)c1)c1cc2ccccc2c(Cl)c1NC(=O)c1cc(Cn2nnc(C(F)(F)F)n2)nn1-c1ncccc1Cl [Example 219] |  | 4.13 | 
Cc1cc(I)cc(C(=O)NCc2ccccc2)c1NC(=O)c1cc(Cn2nnc(CCC(F)(F)F)n2)nn1-c1ncccc1Cl [Example 80] | 3.78 |  | 
Cc1cc(I)cc(C(=O)NCc2cccc(OC(F)(F)F)c2)c1NC(=O)c1cc(Cn2nnc(C(F)(F)C(F)(F)F)n2)nn1-c1ncccc1Cl [Example 147] |  | 4.36 | pest or weed control at 100 g/ha [3]: 100%
Cc1cc(Cl)cc(C(=O)NCC2CCCO2)c1NC(=O)c1cc(Cn2nnc(C(F)(F)F)n2)nn1-c1ncccc1Cl (stereo not shown) [Example 60] | 3.25 |  | pest or weed control at 100 g/ha [2]: 100%
O=C(NCc1ccc(Cl)cc1)c1cc2ccccc2c(Cl)c1NC(=O)c1cc(Cn2nnc(C(F)(F)F)n2)nn1-c1ncccc1Cl [Example 220] |  | 4.11 | 
Cc1cc(Cl)cc(C(=O)NC(C)c2cc(Cl)cc(Cl)c2)c1NC(=O)c1cc(Cn2nnc(C(F)(F)F)n2)nn1-c1ncccc1Cl (stereo not shown) [Example 145] |  | 4.66 | 
Cc1ccc(CNC(=O)c2cc(Cl)cc(C)c2NC(=O)c2cc(Cn3nnc(C(F)(F)F)n3)nn2-c2ncccc2Cl)cc1 [Example 90] | 4.08 |  | pest or weed control at 100 g/ha [2]: 100%
Cc1cc(C#N)cc(C(=O)NCc2ccccc2OC(F)(F)F)c1NC(=O)c1cc(Cn2nnc(C(F)F)n2)nn1-c1ncccc1Cl [Example 162] |  | 3.37 | pest or weed control at 100 g/ha [3]: 100%
Cc1cc(C#N)cc(C(=O)NCc2ccccc2)c1NC(=O)c1cc(Cn2nnc(CCC(F)(F)F)n2)nn1-c1ncccc1Cl [Example 130] |  | 3.21 | pest or weed control at 100 g/ha [3]: 100%

SMILES | chromatographic logP ([1]; pH 2.7, log P) | chromatographic logP [1, 4] | other results
Cc1cc(C#N)cc(C(=O)NCc2ccccc2)c1NC(=O)c1cc(Cn2nnnc2CCC(F)(F)F)nn1-c1ncccc1Cl [Example 132] |  | 2.84 | 
Cc1cc(I)cc(C(=O)NCc2ccccc2)c1NC(=O)c1cc(Cn2nnnc2CCC(F)(F)F)nn1-c1ncccc1Cl [Example 133] | 3.45 |  | 
O=C(NCc1ccccc1OC(F)(F)F)c1cc2ccccc2c(Cl)c1NC(=O)c1cc(Cn2nnc(C(F)(F)F)n2)nn1-c1ncccc1Cl [Example 221] |  | 4.36 | pest or weed control at 100 g/ha [2, 5]: 100%
Cc1cc(C#N)cc(C(=O)NC2COC2)c1NC(=O)c1cc(Cn2nnc(C(F)F)n2)nn1-c1ncccc1Cl [Example 17] | 2.05 |  | pest or weed control at 100 g/ha [2]: 83%
Cc1ccc(Cl)c(C(=O)NCc2cccc(OC(F)(F)F)c2)c1NC(=O)c1cc(Cn2nnc(C(F)(F)F)n2)nn1-c1ncccc1Cl [Example 200] |  | 3.94 | 
Cc1cc(Cl)cc(C(=O)NC2CCN(C)CC2)c1NC(=O)c1cc(Cn2nnc(C(F)(F)F)n2)nn1-c1ncccc1Cl [Example 55] | 4.14 |  | pest or weed control at 100 g/ha [2]: 100%
Cc1cc(C#N)cc(C(=O)NCc2ccccc2OC(F)F)c1NC(=O)c1cc(Cn2nnc(C(F)F)n2)nn1-c1ncccc1Cl [Example 177] |  | 3.07 | 
Cc1ccc(Cl)c(C(=O)NCc2ccc(Cl)cc2)c1NC(=O)c1cc(Cn2nnc(C(F)(F)F)n2)nn1-c1ncccc1Cl [Example 198] | 3.68 |  | 
Cc1cc(Cl)cc(C(=O)NCc2cccc(OC(F)F)c2)c1NC(=O)c1cc(Cn2nnc(C(F)F)n2)nn1-c1ncccc1Cl [Example 176] |  | 3.42 | 
O=C(NCc1ccc(OC(F)(F)F)cc1)c1cc2ccccc2c(Cl)c1NC(=O)c1cc(Cn2nnc(C(F)(F)F)n2)nn1-c1ncccc1Cl [Example 223] |  | 4.36 | pest or weed control at 100 g/ha [2, 5]: 100%
Cc1ccc(Cl)c(C(=O)NCc2ccccc2OC(F)(F)F)c1NC(=O)c1cc(Cn2nnc(C(F)(F)F)n2)nn1-c1ncccc1Cl [Example 199] |  | 3.92 | 
Cc1cc(Cl)cc(C(=O)NCc2ccccc2)c1NC(=O)c1cc(Cn2nnc(CCC(F)(F)F)n2)nn1-c1ncccc1Cl [Example 79] | 3.56 |  | 
Cc1cc(C#N)cc(C(=O)NCc2ccccc2OC(F)F)c1NC(=O)c1cc(Cn2nnc(C(F)(F)F)n2)nn1-c1ncccc1Cl [Example 179] |  | 3.55 | 
Cc1cc(I)cc(C(=O)NCc2ccccc2)c1NC(=O)c1cc(Cn2nc(C(F)(F)F)c(C(F)(F)F)n2)nn1-c1ncccc1Cl [Example 135] |  | 4.75 | 
Cc1cc(C#N)cc(C(=O)NC2CCN(C)CC2)c1NC(=O)c1cc(Cn2nnc(C(F)(F)F)n2)nn1-c1ccccc1Cl [Example 59] |  | 1.79 | 
Cc1cc(Cl)cc(C(=O)NC2COC2)c1NC(=O)c1cc(Cn2nnc(C(F)F)n2)nn1-c1ncccc1Cl [Example 16] | 2.37 |  | pest or weed control at 100 g/ha [2]: 100%
Cc1cc(C#N)cc(C(=O)NCc2ccc(OC(F)(F)F)cc2)c1NC(=O)c1cc(Cn2nnc(C(F)(F)F)n2)nn1-c1c(Cl)cccc1Cl [Example 181] |  | 4.46 | pest or weed control at 100 g/ha [2, 5]: 100%
Cc1cc(C#N)cc(C(=O)NC2CS(=O)(=O)CC2O)c1NC(=O)c1cc(Cn2nnc(C(F)(F)F)n2)nn1-c1ccccc1Cl (stereo not shown) [Example 53] |  | 2.64 | 
Cc1cc(Cl)cc(C(=O)NCc2cc3ccccc3nc2Cl)c1NC(=O)c1cc(Cn2nnc(C(F)(F)F)n2)nn1-c1ncccc1Cl [Example 237] |  | 3.94 | 
